We go through 2 compounds from patent US20080254462A1, “ALTERED ZDHHC8 EXPRESSION AS A MARKER OF INCREASED RISK OF SCHIZOPHRENIA” (priority 2005, published 2008).

Series [1] relates to homozygous Zdhhc8 mutant mice and wild-type littermate controls. Kind of series: Locomotor activating effects of MK801 in the open field. Type of series: in vivo. Here is the method:
Open field assay. Animals were not pre-exposed to the chamber before testing. Activity was monitored in a clear acrylic chamber directly illuminated and equipped with infrared sensors for the automatic recording of horizontal and vertical activity (Colbourn Instruments). Each animal was placed initially in the periphery of the chamber, and recordings of the total distance traveled, the number of rearings (vertical moves) and the number of entries in the centerfield over the next 15 min were used as a measure of a locomotor response to novelty. 47 female mice (17 homozygous Zdhhc8 mutant, 17 heterozygous Zdhhc8 mutant and 13 wild-type littermate controls) and 45 male mice (13 homozygous Zdhhc8 mutant, 19 heterozygous Zdhhc8 mutant and 13 wild-type littermate controls) were tested.
Drug administration. MK801 was purchased from Sigma. Each experimental group consisted of 8-10 mice, which received the same number of injections, administered intraperitoneally, of either drug (0.4 mg per kg body weight) or vehicle. After 30 minutes of prehabituation in the open field, the mice were removed, injected and then left to rest for 10 minutes in their home cage before returning them to the open field arena, where they were monitored for an additional 30 minutes. […]

The subject of series [2] is PSD95 (Post-Synaptic Density-95).

For the compound `C[C@]12N[C@H](Cc3ccccc31)c1ccccc12` [MK801, dizocilpine], the “Sensitivity to MK801-induced stimulation of locomotor activity (ratio of activity after injection to activity before injection)” value in series [1] (homozygous Zdhhc8 mutant female mice vs wild-type littermate controls, 0.4 mg per kg intraperitoneally, P=0.05, not in males) was “somewhat less sensitive to MK801-induced stimulation of locomotor activity than wild-type littermate controls”. In series [1] (open field, 0.4 mg per kg body weight intraperitoneally, 30 minutes before and 30 minutes after injection, both genotypes, females and males), the “Locomotor stimulation after MK801 injection” value is “Locomotor stimulation after MK801 injection was observed in both genotypes in both females (E) and males (F)”.
Consider “ZDHHC8 mutant "230" (lacks the entire C-terminal domain)”, for which the “metabolic labeling assay (palmitoylation of PSD95)” value in series [2] is “this form shows no essentially no activity when compared with vector-only control”.
